In ChEMBL document CHEMBL2074317, “Functional characterization of an organic cation transporter (hOCT1) in a transiently transfected human cell line (HeLa)” (J Pharmacol Exp Ther, 1998):

B1: Solute carrier family 22 member 1 (Homo sapiens) (protein)
chain: MPTVDDILEQVGESGWFQKQAFLILCLLSAAFAPICVGIVFLGFTPDHHCQSPGVAELSQRCGWSPAEELNYTVPGLGPAGEAFLGQCRRYEVDWNQSALSCVDPLASLATNRSHLPLGPCQDGWVYDTPGSSIVTEFNLVCADSWKLDLFQSCLNAGFLFGSLGVGYFADRFGRKLCLLGTVLVNAVSGVLMAFSPNYMSMLLFRLLQGLVSKGNWMAGYTLITEFVGSGSRRTVAIMYQMAFTVGLVALTGLAYALPHWRWLQLAVSLPTFLFLLYYWCVPESPRWLLSQKRNTEAIKIMDHIAQKNGKLPPADLKMLSLEEDVTEKLSPSFADLFRTPRLRKRTFILMYLWFTDSVLYQGLILHMGATSGNLYLDFLYSALVEIPGAFIALITIDRVGRIYPMAMSNLLAGAACLVMIFISPDLHWLNIIIMCVGRMGITIAIQMICLVNAELYPTFVRNLGVMVCSSLCDIGGIITPFIVFRLREVWQALPLILFAVLGLLAAGVTLLLPETKGVALPETMKDAENLGRKAKPKENTIYLKVQTSEPSGT

Target: T1, Solute carrier family 22 member 1 (Homo sapiens, UniProt O15245)
T1 sequence (O15245 whole entry): B1 chain
Assay: TP_TRANSPORTER: inhibition of TEA uptake (TEA: 5 uM, Amantadine: 100 uM) in OCT1-expressing HeLa cells
Type: functional, cell-based

In the case of `NC12CC3CC(CC(C3)C1)C2` [AMANTADINE], the Activity is reported as “inhibitor [(at a rough estimate) 60 % of control]”.

Substrate: CC[N+](CC)(CC)CC
Assay: cells, lysate or membranes named

B1 gave a Km of 229 µM.

Target: T1, Solute carrier family 22 member 1
Assay: TP_TRANSPORTER: inhibition of TEA uptake in OCT1-expressing HeLa cells
Type: functional, cell-based

Compared with `C[n+]1ccc(-c2ccccc2)cc1`, `CNCCCN1c2ccccc2CCc2ccccc21` [DESIPRAMINE] is 2.3-fold lower in Ki: 12.3 µM for the first, 5.36 µM for the second. The second binds more tightly here.

Going from `CC[N+](CC)(CC)CC` [TETRYLAMMONIUM] to `CCCCC[N+](CCCCC)(CCCCC)CCCCC` [TETRAPENTYLAMMONIUM], the Ki falls from 161 µM to 7.46 µM (22-fold). The second binds more tightly here.

First: C[C@]12C[C@H](O)[C@H]3[C@@H](CCC4=CC(=O)CC[C@@]43C)[C@@H]1CC[C@@H]2C(=O)CO [CORTICOSTERONE]
Second: CC(=O)O[C@H]1C[C@@H]2CC[C@@H]3[C@H](CC[C@@]4(C)[C@H]3C[C@H]([N+]3(C)CCCCC3)[C@@H]4OC(C)=O)[C@@]2(C)C[C@@H]1N1CCCCC1 [VECURONIUM]
The Ki of the first is 33-fold lower: 7.02 µM for the first, 232 µM for the second.

Going from `CCN(CC)CCNC(=O)c1ccc(N)cc1` [PROCAINAMIDE] to `CNC(=O)c1cccnc1` [NICOTINYL METHYLAMIDE], the Ki rises from 73.9 µM to 7700 µM (100-fold). The first binds more tightly here.

Going from `Clc1cccc(Cl)c1N=C1NCCN1` [CLONIDINE] to `Cc1ncc2n1-c1ccc(Cl)cc1C(c1ccccc1F)=NC2` [MIDAZOLAM], the Ki rises from 0.55 µM to 3.7 µM (6.7-fold). The first binds more tightly here.

Compared with `CCN1/C(=C/c2ccc3ccccc3[n+]2CC)C=Cc2ccccc21`, `CCCC(=O)Nc1ccc(OCC(O)CNC(C)C)c(C(C)=O)c1` (stereo not given) [ACEBUTOLOL] is 35-fold higher in Ki: 2.73 µM for the first, 95.8 µM for the second.

In the case of `CN/C(=N/CCSCc1nc[nH]c1C)NC#N` [CIMETIDINE], the Ki is reported as 166 µM.
